Where two headings read alike, the source gives them in different places.

The conditions of data set [1]: rat, in vivo, po, 5 mg/kg.
Data set [2] in a line: in vivo. As to conditions: rat, po.

One may read the half-life as how long it takes for the measured level to halve. As to `O=C(CC1(CNC(=O)c2ccccc2)CCCCC1)OCc1ccccc1` [Example 10, [1-(Benzoylamino-methyl)-cyclohexyl]-acetic acid benzyl ester], the half-life result in data set [1] is given as “about 6 hrs”.

In the case of `NCC1(CC(=O)O)CCCCC1` [gabapentin, 1-(aminomethyl)-cyclohexylacetic acid], the half-life in data set [2] was 1.2 h.

The record behind these values is patent publication US20050059735A1, “Cyclic amino acid derivatives useful as pharmaceutical agents” (priority 2000, published 2005).
